# From PubChem BioAssay (NCI)
#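 Cultured in 96-well plates, cells were exposed to test compound for 48 hours across five concentrations. GI50 is the concentration that inhibits growth by half. At the TGI there is no net growth.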
# Tests used:
# Assay in all cases: DTP human tumour cell line panel, 48 h
# COLO 205 colon = test system: COLO 205 colon
# MDA-MB-435 = test system: MDA-MB-435
# OVCAR-5 ovarian = test system: OVCAR-5 ovarian
# SNB-19 CNS = test system: SNB-19 CNS
# T-47D breast = test system: T-47D breast
# CAKI-1 renal = test system: CAKI-1 renal
# SK-OV-3 ovarian = test system: SK-OV-3 ovarian
# MALME-3M melanoma = test system: MALME-3M melanoma
# U251 CNS = test system: U251 CNS
# SF-268 CNS = test system: SF-268 CNS
Structure (SMILES),TGI (COLO 205 colon) [µM],TGI (MDA-MB-435) [µM],TGI (OVCAR-5 ovarian) [µM],TGI (SNB-19 CNS) [µM],TGI (T-47D breast) [µM],TGI (CAKI-1 renal) [µM],TGI (SK-OV-3 ovarian) [µM],TGI (MALME-3M melanoma) [µM],TGI (U251 CNS) [µM],TGI (SF-268 CNS) [µM],GI50 (COLO 205 colon) [µM],GI50 (MDA-MB-435) [µM],GI50 (OVCAR-5 ovarian) [µM],GI50 (SNB-19 CNS) [µM],GI50 (T-47D breast) [µM],GI50 (CAKI-1 renal) [µM],GI50 (SK-OV-3 ovarian) [µM],GI50 (MALME-3M melanoma) [µM],GI50 (U251 CNS) [µM],GI50 (SF-268 CNS) [µM]
CC(C)(C)N/N=C(/Cc1nc2c3c(ccc2[nH]c1=O)C(=O)c1ccccc1C3=O)C(=O)NC1=C(Cl)C(=O)c2ccccc2C1=O,89.5,> 100,> 100,> 100,> 100,> 100,> 100,37.8,> 100,43.5,,,,,,,,,,
C=C1C(=O)OC2CC(C)C(/C=C/C(C)=O)=CCC12 (stereo unspecified),> 100,> 100,> 100,> 100,> 100,> 100,> 100,89.4,> 100,> 100,,,,,,,,,,
Cc1cc(NC(=O)NCc2ccc(N3C(N)=NC(N)=NC3(C)C)cc2)ccc1S(=O)(=O)F,> 100,> 100,> 100,> 100,> 100,> 100,> 100,98.5,> 100,> 88,2.77,0.456,> 25.4,11.7,15.7,> 49.3,36.6,29,0.832,0.682
O=c1ccc(N=Nc2ccccc2)ccc1O,31.7,30.7,47.4,> 100,42.4,29.4,> 100,27.9,20.2,> 100,,,,,,,,,,
Clc1ccc(C=Nc2ccc(-c3nc4ccccc4[nH]3)cc2)cc1,> 100,> 100,> 100,> 100,> 100,> 100,> 100,> 100,> 100,> 100,> 100,> 100,> 100,55.6,55.1,> 100,> 100,> 100,65.1,58.4
O=c1cc(-c2ccccc2)oc2ccc(Cl)cc12,> 85.7,> 60.1,> 100,> 81.7,> 100,> 90.4,> 100,> 82.4,> 91.7,> 85.3,,,,,,,,,,
CCCCCCCCCCCCCCCCCc1nc(Cl)nc(Cl)c1Cl,> 100,> 100,> 100,> 100,> 100,> 100,> 100,> 100,> 100,> 100,,,,,,,,,,
CCn1c(-c2nonc2N)nc2ccccc21,> 25,> 25,> 25,> 25,> 25,> 25,> 25,> 25,> 25,> 25,> 25,> 25,> 25,> 25,> 25,> 25,> 25,> 25,> 25,> 25
CC1(C)N=C(N)N=C(N)N1c1ccc(CCCC(=O)Nc2ccc(S(=O)(=O)F)cc2)cc1,> 100,> 100,> 100,> 100,98.2,> 100,> 100,> 100,> 100,> 100,5.59,3.75,12,36.5,15.8,35,> 100,24.2,9.22,6.59
COc1cc2ncn(-c3cc(OCc4ccccc4C(F)(F)F)c(C(N)=O)s3)c2cc1OC,> 25,0.282,> 25,> 19.3,> 25,> 25,9.09,> 25,> 19.3,> 25,0.117,0.0552,0.178,2.4,4.42,3.88,0.251,14.5,0.206,0.225
CCN(CC)c1ccc(/C=N/NC(=O)Cc2ccc(Nc3ccnc(C(F)(F)F)c3)cc2)c(O)c1,> 100,> 100,> 100,> 26.6,> 25.1,> 25,> 100,> 26,> 100,> 100,1.24,1.29,2.42,0.588,0.517,0.413,0.359,1.18,0.586,0.455
O=c1c(I)c[nH]cc1I,> 100,> 100,> 100,> 100,> 100,> 100,> 100,> 100,> 100,> 100,> 100,> 100,> 100,> 100,> 100,> 100,> 100,> 100,> 100,> 100
O=[N+]([O-])c1cccc(/C=N/Nc2ccc3ccccc3n2)c1O,9.48,20.1,48.3,47.4,4.89,16.5,11.1,11.3,16.4,15.3,,,,,,,,,,
Cn1c(=O)c(-c2ccccc2Cl)cc2cnc(NC3CCOCC3)nc21,> 25,> 25,> 25,> 25,> 25,> 25,> 25,> 22.3,> 25,> 25,9.61,7.22,18.5,> 25,18.1,6.58,8.89,7.08,15.1,14.6
COc1ccc2nc3ccccc3c(NCCNCCO)c2c1,1.77,1.83,8.85,6.9,6.71,6.5,7.67,1.88,4.35,2.95,0.397,0.474,1.18,0.661,0.673,1.22,0.869,0.382,0.479,0.46
CCCCNc1ncnc2c1cnn2-c1ccccc1,11.7,0.7,> 100,> 100,52.8,> 40.8,31.2,> 72.5,> 61.8,> 84.5,1.15,0.237,12.9,8.69,3.71,2.09,3.2,6.18,2.84,9.78
Fc1ccccc1CN1COc2c(cc(Cl)c3cccnc23)C1,28.3,8.27,15.3,9.23,18.4,9.93,19.6,12.2,12.8,20.3,,,,,,,,,,
CC(C)(Oc1ccc(-c2cccc3ccccc23)cc1)C(=O)O,> 100,> 100,> 100,> 100,> 100,> 100,> 100,> 100,> 100,> 100,,,,,,,,,,
COC1C(OC(=O)c2ccc(C)[nH]2)C(O)C(Oc2ccc3c(O)c(NC(=O)c4ccc(O)c(CC=C(C)C)c4)c(=O)oc3c2Cl)OC1(C)C (stereo unspecified),52.8,> 100,33.2,30,36.5,36.2,54.6,34,26.8,57.4,,,,,,,,,,
Nc1ncn([C@H]2CC(O)[C@@H](CO)S2)c(=O)n1 (stereo partly specified),> 100,> 100,> 100,> 100,> 100,> 100,> 100,> 100,> 100,> 100,0.839,0.783,23.3,16.2,> 100,1.99,28.9,88.6,12.7,16.4
O=C(/C=C/c1ccc(O)c(O)c1)N1CCN(c2ccc(Cl)cc2)CC1,19.7,62.2,85.7,98.1,77,48,67.7,57.5,23.3,42.6,5.11,5.93,13.3,5.17,5.57,4.71,10.1,11.1,5,4.92
CN1CCCCC1CCN1c2ccccc2Sc2ccc(Br)cc21 (stereo unspecified),4.2,4.24,7.65,12.4,14.4,10.9,12.3,4,4.66,6.61,2.04,1.98,2.45,2.92,3.61,2.97,3.44,2.08,2.13,2.44
CC1(C)CC(O)CC(C)(C)N1O,> 100,> 100,> 100,> 100,> 100,> 100,> 100,> 100,> 100,> 100,,,,,,,,,> 100,
